Reference: DBAASP
In brackets after ≈: the same amount, converted by molar mass. Several values for one entry are separate records, joined by “and”; a condition that tells them apart may be missing. Equal entries are not always repeated. Values belong to the compound of their own block, whether it stands above or below them.

Key:
Assay in all cases: ≥ marks a high value that may be exact or a test limit, other limits are often not marked, values filed in µg/mL are converted to µM
[1] = tested on: Pectobacterium carotovorum subsp. carotovorum DSM 30168
[2] = tested on: Clavibacter michiganensis subsp. michiganensis DSM 46294
[3] = tested on: Pseudomonas syringae pv. syringae DSM 10604
[4] = tested on: Pseudomonas syringae pv. tomato DC3000
[5] = tested on: Staphylococcus aureus 90857
[6] = tested on: Xanthomonas vesicatoria DSM 50861
[7] = tested on: Pseudomonas corrugata DSM 7228
[8] = tested on: Bacillus subtilis var. niger ATCC 9372
Escherichia coli K91BK = tested on: Escherichia coli K91BK
[9] = tested on: Bacillus anthracis Sterne 34F2
[10] = tested on: Klebsiella pneumoniae LMG 20218
[11] = tested on: Staphylococcus aureus ATCC 25923
[12] = tested on: Enterococcus faecium ATCC 35667
[13] = tested on: Staphylococcus epidermidis ATCC 29887
[14] = tested on: Salmonella enterica subsp. enterica serovar Enteritidis ATCC 13076
[15] = tested on: Klebsiella aerogenes LMG 02094
[16] = tested on: Staphylococcus aureus ATCC 33591
[17] = tested on: Klebsiella pneumoniae ATCC 700603
[18] = tested on: Staphylococcus aureus ATCC 29213
Fusarium oxysporum LD21 = tested on: Fusarium oxysporum LD21
[19] = tested on: Enterococcus faecalis JH-2-2
[20] = tested on: Escherichia coli LMG 15862
[21] = tested on: Listeria monocytogenes ATCC 19115
[22] = tested on: Shewanella putrefaciens ATCC 49138
[23] = tested on: Escherichia coli CGSC 5167
[24] = tested on: Klebsiella pneumoniae ATCC 13883
[25] = tested on: Streptococcus agalactiae ATCC 13813
[26] = tested on: Acinetobacter baumannii LMG 01041
[27] = tested on: Escherichia coli ATCC 25922
[28] = tested on: Campylobacter jejuni ATCC 33291
[29] = tested on: Candida albicans ATCC 64550
[30] = tested on: Pseudomonas aeruginosa ATCC 27853
[31] = tested on: Streptococcus pneumoniae ATCC 700677
[32] = tested on: Streptococcus pneumoniae ATCC 33400
[33] = tested on: Enterococcus faecium ATCC 51559
[34] = tested on: Pseudomonas aeruginosa ATCC 10145
[35] = tested on: Pseudomonas aeruginosa LMG 6395
[36] = tested on: Candida albicans ATCC 10231
[37] = tested on: Escherichia coli NCTC 12923
[38] = tested on: Staphylococcus aureus USA 300
[39] = tested on: Pseudomonas aeruginosa ATCC BAA-2114
[40] = tested on: Acinetobacter baumannii ATCC 17978
[41] = tested on: Staphylococcus epidermidis ATCC 12228
[42] = tested on: Staphylococcus aureus ATCC 9144
[43] = tested on: Salmonella enterica subsp. enterica serovar Choleraesuis ATCC 10708
[44] = tested on: Klebsiella pneumoniae NCTC 13368
[45] = tested on: Enterococcus faecalis ATCC 19433
[46] = tested on: Pseudomonas aeruginosa ATCC 9027
[47] = tested on: Staphylococcus aureus ATCC 43300
[48] = tested on: Pseudomonas aeruginosa PAO1
Cladosporium herbarum = tested on: Cladosporium herbarum
Botrytis cinerea = tested on: Botrytis cinerea
Alternaria alternata = tested on: Alternaria alternata

MIC [1]: 1.62 µM (≈ 2.5 µg/mL) | MIC [2]: 0.646 µM (≈ 0.999 µg/mL) | MIC [3]: 1.62 µM (≈ 2.5 µg/mL) | MIC [4]: 0.646 µM (≈ 0.999 µg/mL) | MIC [5]: 1.5 µM (≈ 2.32 µg/mL) | MIC [6]: 1.62 µM (≈ 2.5 µg/mL) | MIC [7]: 1.62 µM (≈ 2.5 µg/mL)
Compound: CC[C@H](C)[C@H](NC(=O)[C@H](CCCCN)NC(=O)[C@H](CCCCN)NC(=O)[C@H](CC(C)C)NC(=O)[C@H](Cc1ccccc1)NC(=O)[C@H](CCCN=C(N)N)NC(=O)[C@@H](N)CC(C)C)C(=O)N[C@@H](CC(C)C)C(=O)N[C@@H](CCCCN)C(=O)N[C@@H](CCCCN)C(=O)N[C@@H](CC(C)C)C(=O)N[C@@H](Cc1ccccc1)C(N)=O [LRFLKKILKKLF]

MIC [37]: 1.85 µM (≈ 4 µg/mL) | MIC [38]: 3.7 µM (≈ 8 µg/mL) | MIC [39]: ≥ 35 µM | MIC [40]: 1.85 µM (≈ 4 µg/mL) | MIC [41]: 5 µM (≈ 10.8 µg/mL) | MIC [42]: 1.85 µM (≈ 4 µg/mL) | MIC [16]: 5 µM and 3 µM | MIC [18]: 5 µM and 3 µM | MIC [24]: 5 µM (≈ 10.8 µg/mL) | MIC [44]: 7.4 µM (≈ 16 µg/mL) | MIC [45]: 5 µM (≈ 10.8 µg/mL) | MIC [27]: 7.5 µM (≈ 16.2 µg/mL) | MIC [30]: 35 µM (≈ 75.7 µg/mL) | MIC [46]: 5 µM (≈ 10.8 µg/mL) | MIC [47]: 5 µM (≈ 10.8 µg/mL) | MIC [48]: 14.8 µM (≈ 32 µg/mL)
Compound: CC[C@H](C)[C@H](NC(=O)[C@H](C)NC(=O)[C@H](CCCCN)NC(=O)[C@@H]1CCCN1C(=O)[C@@H](NC(=O)[C@H](CC(C)C)NC(=O)[C@H](CCCCN)NC(=O)[C@H](Cc1ccccc1)NC(=O)[C@H](CC(C)C)NC(=O)[C@@H](N)Cc1ccccc1)[C@@H](C)CC)C(=O)N[C@@H](CCCCN)C(=O)N[C@@H](CCCCN)C(=O)N[C@@H](CC(C)C)C(=O)N[C@H](C(=O)N[C@@H](CO)C(=O)N[C@@H](CCCCN)C(=O)N[C@@H](Cc1ccccc1)C(=O)N[C@@H](CCCCN)C(=O)O)[C@@H](C)CC [FLFKLIPKAIKKLISKFK]
MIC [43]: 7.5 µM (≈ 16.2 µg/mL)

Second part, the compound before the results:

Compound: CC[C@H](C)[C@H](NC(C)=O)C(=O)N[C@@H](CC(C)C)C(=O)N[C@@H](CCCN=C(N)N)C(=O)N[C@@H](Cc1c[nH]c2ccccc12)C(=O)N1CCC[C@H]1C(=O)N[C@@H](Cc1c[nH]c2ccccc12)C(=O)N[C@@H](Cc1c[nH]c2ccccc12)C(=O)N1CCC[C@H]1C(=O)N[C@@H](Cc1c[nH]c2ccccc12)C(=O)N[C@@H](CCCN=C(N)N)C(=O)N[C@@H](CCCN=C(N)N)C(=O)N[C@@H](CCCCN)C(N)=O [ILRWPWWPWRRK]
MIC [8]: 3.13 µM (≈ 5.7 µg/mL) | MIC (Escherichia coli K91BK): ≥ 100 µM | MIC [9]: 25 µM (≈ 45.5 µg/mL)

Compound: CC[C@H](C)[C@H](NC(=O)[C@H](CCCN=C(N)N)NC(=O)[C@H](CCCN=C(N)N)NC(=O)[C@H](Cc1ccccc1)NC(=O)[C@H](CC(C)C)NC(=O)[C@H](CCCN=C(N)N)NC(=O)[C@@H](N)CCCN=C(N)N)C(=O)N[C@@H](CC(C)C)C(=O)N[C@@H](CCCN=C(N)N)C(=O)N[C@@H](Cc1c[nH]c2ccccc12)C(=O)N[C@@H](CC(C)C)C(N)=O [RRLFRRILRWL]
MIC [10]: 4 µM (≈ 6.34 µg/mL) | MIC [11]: 0.8 µM (≈ 1.27 µg/mL) | MIC [12]: 1 µM (≈ 1.58 µg/mL) | MIC [13]: 1.89 µM (≈ 3 µg/mL) | MIC [14]: 3.79 µM (≈ 6 µg/mL) | MIC [15]: 8 µM (≈ 12.7 µg/mL) | MIC [16]: 0.3 µM (≈ 0.475 µg/mL) | MIC [17]: 0.3 µM (≈ 0.475 µg/mL) | MIC [18]: 3.79 µM (≈ 6 µg/mL) | MIC (Fusarium oxysporum LD21): 7.57 µM (≈ 12 µg/mL) | MIC [19]: 15.8 µM (≈ 25 µg/mL) | MIC [20]: 2 µM (≈ 3.17 µg/mL) | MIC [21]: 3.79 µM (≈ 6 µg/mL) | MIC [22]: 3.79 µM (≈ 6 µg/mL) | MIC [23]: 0.2 µM (≈ 0.317 µg/mL) | MIC [24]: 0.1 µM (≈ 0.158 µg/mL) | MIC [25]: 1.89 µM (≈ 3 µg/mL) | MIC [26]: 2 µM (≈ 3.17 µg/mL) | MIC [27]: 0.5 µM (≈ 0.792 µg/mL) | MIC [28]: 3.79 µM (≈ 6 µg/mL) | MIC [29]: ≥ 100 µM | MIC [30]: 1.5 µM (≈ 2.38 µg/mL) | MIC [31]: 0.4 µM (≈ 0.634 µg/mL) | MIC [32]: 0.8 µM (≈ 1.27 µg/mL) | MIC [33]: 1 µM (≈ 1.58 µg/mL) | MIC [34]: 2.5 µM (≈ 3.96 µg/mL) | MIC [35]: 3 µM (≈ 4.75 µg/mL) | MIC [36]: 7.57 µM (≈ 12 µg/mL)

Compound: CC[C@H](C)[C@H](NC(=O)[C@H](Cc1ccccc1)NC(=O)[C@H](CCCN=C(N)N)NC(=O)[C@H](CCCCN)NC(=O)[C@H](CC(C)C)NC(=O)[C@H](Cc1ccccc1)NC(=O)[C@H](CCCCN)NC(=O)[C@@H](NC(=O)[C@H](CC(C)C)NC(=O)[C@@H](N)CC(C)C)[C@@H](C)CC)C(=O)N[C@@H](CCCCN)C(=O)N[C@@H](Cc1cnc[nH]1)C(N)=O [LLIKFLKRFIKH]
MIC (Cladosporium herbarum): 12.9 µM (≈ 20 µg/mL) | MIC [1]: 25.7 µM (≈ 40 µg/mL) | MIC (Botrytis cinerea): ≥ 64.3 µM | MIC [2]: 3.21 µM (≈ 5 µg/mL) | MIC [3]: 6.43 µM (≈ 9.99 µg/mL) | MIC [4]: 3.21 µM (≈ 5 µg/mL) | MIC (Alternaria alternata): ≥ 64.3 µM | MIC [6]: 3.21 µM (≈ 5 µg/mL) | MIC [7]: 6.43 µM (≈ 9.99 µg/mL)
